# Results as given in publication PMC12638379, “An innovative approach to development of new pyrazolylquinolin-2-one hybrids as dual EGFR and BRAF^V600E inhibitors” (Molecular Diversity, 2025).
# Where two headings read alike, the source gives them in different places.
# Test system: NCI 60 cancer cell lines
# Assay: NCI anticancer screening over a panel of 60 cancer cells, single concentration 10 µM
# Assay type: cell-based, human
# Details: Homo sapiens, read-out: Growth inhibition (GI %)
# Outline: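 Run under the NCI Compound Evaluation Branch protocol, each compound was tested once at 10 µM. The panel comprised 60 cancer cell lines of diverse tissue origin, including leukemia, lung, colon, CNS, renal, ovarian, breast and prostate.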
# [1] = A549, Non-small cell lung cancer A549/ATCC, 10 μM
# [2] = BT-549, Breast cancer BT-549, 10 μM
# [3] = CAKI-1, Renal cancer CAKI-1, 10 μM
# [4] = CCRF-CEM, Leukemia CCRF-CEM, 10 μM
# [5] = COLO 205, Colon cancer COLO 205, 10 μM
# [6] = DU-145, Prostate cancer DU-145, 10 μM
# [7] = EKVX, Non-small cell lung cancer EKVX, 10 μM
# [8] = HCC 2998, Colon cancer HCC-2998, 10 μM
# [9] = HCT-15, Colon cancer HCT-15, 10 μM
# [10] = HCT-116, Colon cancer HCT-116, 10 μM
# [11] = HL-60, Leukemia HL-60(TB), 10 μM
# [12] = HOP-62, Non-small cell lung cancer HOP-62, 10 μM
# [13] = HOP-92, Non-small cell lung cancer HOP-92, 10 μM
# [14] = HT-29, Colon cancer HT29, 10 μM
# [15] = Hs-578T, Breast cancer HS 578T, 10 μM
# [16] = IGROV-1, Ovarian cancer IGROV1, 10 μM
# [17] = LOX IMVI, Melanoma LOX IMVI, 10 μM
# [18] = MCF7, Breast cancer MCF7, 10 μM
# [19] = MDA-MB-435, Melanoma MDA-MB-435, 10 μM
# [20] = MDA-MB-468, Breast cancer MDA-MB-468, 10 μM
# [21] = Malme-3M, Melanoma MALME-3M, 10 μM
# [22] = NCI-H23, Non-small cell lung cancer NCI-H23, 10 μM
# [23] = NCI-H226, Non-small cell lung cancer NCI-H226, 10 μM
# [24] = NCI-H322M, Non-small cell lung cancer NCI-H322M, 10 μM
# [25] = NCI-H460, Non-small cell lung cancer NCI-H460, 10 μM
# [26] = NCI-H522, Non-small cell lung cancer NCI-H522, 10 μM
# [27] = NCI/ADR-RES, Ovarian cancer NCI/ADR-RES, 10 μM
# [28] = OVCAR-3, Ovarian cancer OVCAR-3, 10 μM
# [29] = OVCAR-4, Ovarian cancer OVCAR-4, 10 μM
# [30] = OVCAR-5, Ovarian cancer OVCAR-5, 10 μM
# [31] = OVCAR-8, Ovarian cancer OVCAR-8, 10 μM
# [32] = RPMI-8226, Leukemia RPMI-8226, 10 μM
# [33] = RXF 393, Renal cancer RXF 393, 10 μM
# [34] = SF-268, CNS Cancer SF-268, 10 μM
# [35] = SF-295, CNS Cancer SF-295, 10 μM
# [36] = SF-539, CNS Cancer SF-539, 10 μM
# [37] = SK-MEL-2, Melanoma SK-MEL-2, 10 μM
# [38] = SK-MEL-5, Melanoma SK-MEL-5, 10 μM
# [39] = SK-MEL-28, Melanoma SK-MEL-28, 10 μM
# [40] = SK-OV-3, Ovarian cancer SK-OV-3, 10 μM
# [41] = SN12C, Renal cancer SN12C, 10 μM
# [42] = SNB-19, CNS Cancer SNB-19, 10 μM
# [43] = SNB-75, CNS Cancer SNB-75, 10 μM
# [44] = SW-620, Colon cancer SW-620, 10 μM
# [45] = T47D, Breast cancer T-47D, 10 μM
# [46] = TK-10, Renal cancer TK-10, 10 μM
# [47] = UACC-62, Melanoma UACC-62, 10 μM
# [48] = UACC-257, Melanoma UACC-257, 10 μM
# [49] = UO-31, Renal cancer UO-31, 10 μM
smiles,measurement,setting,value
"CC(=O)c1cnn(-c2cc(=O)[nH]c3ccccc23)c1C [Compound 2a, 4-(4-Acetyl-5-methyl-1H-pyrazol-1-yl)quinolin-2(1H)-one]",inhibition at 10 µM,"786-0, Renal cancer 786-0, 10 μM",< 5%
same,inhibition at 10 µM,"A498, Renal cancer A498, 10 μM",< 5%
same,inhibition at 10 µM,[1],5.98%
same,inhibition at 10 µM,"ACHN, Renal cancer ACHN, 10 μM",7.82%
same,inhibition at 10 µM,[2],6.06%
same,inhibition at 10 µM,[3],21.5%
same,inhibition at 10 µM,[4],11.3%
same,inhibition at 10 µM,[5],< 5%
same,inhibition at 10 µM,[6],< 5%
same,inhibition at 10 µM,[7],54.4%
same,inhibition at 10 µM,[8],< 5%
same,inhibition at 10 µM,[9],< 5%
same,inhibition at 10 µM,[10],< 5%
same,inhibition at 10 µM,[11],6.26%
same,inhibition at 10 µM,[12],22.9%
same,inhibition at 10 µM,[13],25.1%
same,inhibition at 10 µM,[14],< 5%
same,inhibition at 10 µM,[15],8.26%
same,inhibition at 10 µM,[16],37.9%
same,inhibition at 10 µM,"K562, Leukemia K-562, 10 μM",9.72%
same,inhibition at 10 µM,"KM12, Colon cancer KM12, 10 μM",< 5%
same,inhibition at 10 µM,[17],15.6%
same,inhibition at 10 µM,"Leukemia SR, 10 μM",5.8%
same,inhibition at 10 µM,[18],17.3%
same,inhibition at 10 µM,"MDA-MB-231, Breast Cancer MDA-MB 231/ATCC, 10 μM",26.9%
same,inhibition at 10 µM,[19],< 5%
same,inhibition at 10 µM,[20],< 5%
same,inhibition at 10 µM,"MOLT-4, Leukemia MOLT-4, 10 μM",7.63%
same,inhibition at 10 µM,[21],11.3%
same,inhibition at 10 µM,"Melanoma M14, 10 μM",< 5%
same,inhibition at 10 µM,[22],10.3%
same,inhibition at 10 µM,[23],32.4%
same,inhibition at 10 µM,[24],16.1%
same,inhibition at 10 µM,[25],< 5%
same,inhibition at 10 µM,[26],10.3%
same,inhibition at 10 µM,[27],8.35%
same,inhibition at 10 µM,[28],< 5%
same,inhibition at 10 µM,[29],< 5%
same,inhibition at 10 µM,[30],< 5%
same,inhibition at 10 µM,[31],< 5%
same,inhibition at 10 µM,"Prostate cancer PC-3, 10 μM",15.2%
same,inhibition at 10 µM,[32],26.6%
same,inhibition at 10 µM,[33],< 5%
same,inhibition at 10 µM,[34],< 5%
same,inhibition at 10 µM,[35],6.24%
same,inhibition at 10 µM,[36],13%
same,inhibition at 10 µM,[37],< 5%
same,inhibition at 10 µM,[38],11.9%
same,inhibition at 10 µM,[39],< 5%
same,inhibition at 10 µM,[40],20%
same,inhibition at 10 µM,[41],8.07%
same,inhibition at 10 µM,[42],11.4%
same,inhibition at 10 µM,[43],< 5%
same,inhibition at 10 µM,[44],< 5%
same,inhibition at 10 µM,[45],16.9%
same,inhibition at 10 µM,[46],< 5%
same,inhibition at 10 µM,"U-251, CNS Cancer U251, 10 μM",8.86%
same,inhibition at 10 µM,[47],19.5%
same,inhibition at 10 µM,[48],< 5%
same,inhibition at 10 µM,[49],38.3%
"CC(=O)c1cnn(-c2cc(=O)[nH]c3ccc(Cl)cc23)c1C [Compound 2d, 4-(4Aacetyl-5-methyl-1H-pyrazol-1-yl)-6-chloroquinolin-2(1H)-one]",inhibition at 10 µM,"A498, Renal cancer A498, 10 μM",< 5%
same,inhibition at 10 µM,[1],5.11%
same,inhibition at 10 µM,"ACHN, Renal cancer ACHN, 10 μM",7.6%
same,inhibition at 10 µM,[2],< 5%
same,inhibition at 10 µM,[3],15.1%
same,inhibition at 10 µM,[4],8.99%
same,inhibition at 10 µM,[5],< 5%
same,inhibition at 10 µM,[6],< 5%
same,inhibition at 10 µM,[7],13.9%
same,inhibition at 10 µM,[8],< 5%
same,inhibition at 10 µM,[9],< 5%
same,inhibition at 10 µM,[10],< 5%
same,inhibition at 10 µM,[11],6.19%
same,inhibition at 10 µM,[12],9.35%
same,inhibition at 10 µM,[13],13.4%
same,inhibition at 10 µM,[14],< 5%
same,inhibition at 10 µM,[15],< 5%
same,inhibition at 10 µM,[16],7.41%
same,inhibition at 10 µM,"K562, Leukemia K-562, 10 μM",5.5%
same,inhibition at 10 µM,"KM12, Colon cancer KM12, 10 μM",< 5%
same,inhibition at 10 µM,[17],11.2%
same,inhibition at 10 µM,"Leukemia SR, 10 μM",< 5%
same,inhibition at 10 µM,[18],6.43%
same,inhibition at 10 µM,[19],< 5%
same,inhibition at 10 µM,[20],< 5%
same,inhibition at 10 µM,"MOLT-4, Leukemia MOLT-4, 10 μM",8.77%
same,inhibition at 10 µM,[21],13.3%
same,inhibition at 10 µM,"Melanoma M14, 10 μM",< 5%
same,inhibition at 10 µM,[22],5.37%
same,inhibition at 10 µM,[23],16.6%
same,inhibition at 10 µM,[24],12.2%
same,inhibition at 10 µM,[25],< 5%
same,inhibition at 10 µM,[26],5.29%
same,inhibition at 10 µM,[27],5.32%
same,inhibition at 10 µM,[28],< 5%
same,inhibition at 10 µM,[29],< 5%
same,inhibition at 10 µM,[30],< 5%
same,inhibition at 10 µM,[31],< 5%
same,inhibition at 10 µM,"Prostate cancer PC-3, 10 μM",11%
same,inhibition at 10 µM,[32],9.16%
same,inhibition at 10 µM,[33],< 5%
same,inhibition at 10 µM,[34],< 5%
same,inhibition at 10 µM,[35],5.21%
same,inhibition at 10 µM,[36],14.4%
same,inhibition at 10 µM,[37],< 5%
same,inhibition at 10 µM,[38],5.89%
same,inhibition at 10 µM,[39],< 5%
same,inhibition at 10 µM,[40],6.14%
same,inhibition at 10 µM,[41],15.2%
same,inhibition at 10 µM,[42],7.35%
same,inhibition at 10 µM,[43],< 5%
same,inhibition at 10 µM,[44],< 5%
same,inhibition at 10 µM,[45],< 5%
same,inhibition at 10 µM,[46],< 5%
same,inhibition at 10 µM,"U-251, CNS Cancer U251, 10 μM",< 5%
same,inhibition at 10 µM,[47],15.7%
same,inhibition at 10 µM,[48],< 5%
same,inhibition at 10 µM,[49],35%
